Columns and labels:
Format in all cases: in vivo
human lung cancer A549 = assay: Compound 8 combined with carboplatin, human lung cancer A549 xenograft in nude mice; conditions: ip: carboplatin 10 mg/kg, compound 8 200 mg/kg, combination 10 + 200
Text: (§1) Experimental method: The model of human lung cancer A549 transplant tumor in nude mice was established by subcutaneously inoculating human lung cancer A549 cell lines into the armpits of nude mice. Cells were inoculated in an amount of 1×10^6, and after formation of the transplanted tumors by inoculation, the cells were passed 3 generations in nude mice before use. The vigorous growth of tumor tissue was cut into approximate 1.5 mm^3, and homogenized under sterile conditions, to prepare 1×10^7/mL of cell suspension. 0.1 mL of cell suspension was subcutaneously inoculated into the right armpit of nude mice. For transplanted tumors in nude mice, the diameter was measured with vernier caliper. After the tumor grew to 100 mm^3, the animals were randomly divided into groups, with 6 mice in each group. Using the method of measuring tumor diameter, the anti-tumor effect of test compound was dynamically Observed. Compound 8 was administered at 200 mg/kg by intraperitoneal injection, once every other day, for three weeks; carboplatin was administered at 10 mg/kg by intraperitoneal injection, once every other day, for three weeks. The measurement frequency of tumor diameter was once every three days. The dosage by volume was 0.1 mL/20 g. The mice in the negative control group were given an equal amount of physiological saline by intravenous injection. The effect of combined medicaments was evaluated based on the Q value calculated by Jin's formula: […]
Ea+b represents the tumor inhibitory rate of the combined medicaments, while Ea and Eb represent the tumor inhibitory rates of medicament A and medicament B, respectively. For example, the Q value of 0.85-1.15 means additive action (+), while the Q value of >1.15 means synergistic action (++).

[1] = tested on: human liver cancer Bel7404; assay: Compound 3 combined with lenvatinib, human liver cancer Bel7404 xenograft in nude mice; conditions: po: lenvatinib 10 mg/kg, compound 3 400 mg/kg, combination 10 + 400
Text: Experimental method: The model of human liver cancer Bel7404 transplant tumor in nude mice was established by subcutaneously inoculating human liver cancer Bel7404 cell lines into the armpits of nude mice. Cells were inoculated in an amount of 1×10^6, and after formation of the transplanted tumors by inoculation, the cells were passed 3 generations in nude mice before use. The vigorous growth of tumor tissue was cut into approximate 1.5 mm^3, and homogenized under sterile conditions, to prepare 1×10^7/mL of cell suspension. 0.1 mL of cell suspension was subcutaneously inoculated into the right armpit of nude mice. For transplanted tumors in nude mice, the diameter of the transplanted tumor was measured with vernier caliper. After the tumor grew to 100 mm^3, the animals were randomly divided into groups, with 6 animals in each group. Using the method of measuring tumor diameter, the anti-tumor effect of test compound was dynamically observed. Compound 3 was orally administered at 400 mg/kg, once a day, for three weeks; lenvartinib was also orally administered at 10 mg/kg, once a day, for two weeks. The measurement frequency of tumor diameter was once every three days. The animals in the negative control group were orally given an equal amount of physiological saline. The effect of combined medicaments was evaluated based on the Q value calculated by the Jin's formula: […]
Ea+b represents the tumor inhibitory rate of the combined medicaments, while Ea and Eb represent the tumor inhibitory rates of medicament A and medicament B, respectively. For example, the Q value of 0.85-1.15 means additive action (+), and the Q value of >1.15 means synergistic action (++).

[2] = tested on: human gastric cancer SGC7901; assay: Compound 6 combined with paclitaxel, human gastric cancer SGC7901 xenograft in nude mice; conditions: paclitaxel 10 mg/kg iv, compound 6 200 mg/kg ip, combination 10 + 200
Text: as §1, with “gastric” for “lung”, “SGC7901” for “A549”, “Using the method of measuring tumor diameter, the anti-tumor effect of test compound was dynamically Observed. Compound 8 was administered at 200 mg/kg by intraperitoneal injection, once every other day, for three weeks; carboplatin was administered at 10 mg/kg by intraperitoneal injection, once every other day, for three weeks.” left out
Ea+b represents the tumor inhibitory rate of the combined medicaments, while Ea and Eb represent the tumor inhibitory rates of medicament A and medicament B, respectively.

Structure (SMILES): N.N.O=C([O-])C1(C(=O)[O-])CCC1.[Pt+2] [Carboplatin]
- RTV (d 21) (human lung cancer A549): 6.63 ± 1.42
- Terminal weight (human lung cancer A549): 21.5 ± 0.9 g
- Tumor inhibitory rate % (human lung cancer A549): 48.48%

Structure (SMILES): COc1cc2nccc(Oc3ccc(NC(=O)NC4CC4)c(Cl)c3)c2cc1C(N)=O [Lenvatinib, reference compound]
- RTV (d 21) [1]: 3.89 ± 1.46
- Terminal weight [1]: 21.8 ± 0.7 g
- Tumor inhibitory rate % [1]: 65.36%

Structure (SMILES): CC(=O)O[C@H]1C(=O)[C@@]2(C)[C@H]([C@H](OC(=O)c3ccccc3)[C@]3(O)C[C@H](OC(=O)[C@H](O)[C@@H](NC(=O)c4ccccc4)c4ccccc4)C(C)=C1C3(C)C)[C@]1(OC(C)=O)CO[C@@H]1C[C@@H]2O [Paclitaxel, reference compound]
- RTV (d 21) [2]: 7.37 ± 1.76
- Terminal weight [2]: 21.7 ± 0.6 g
- Tumor inhibitory rate % [2]: 45.49%
